In patent US20260347372A1, “SMALL MOLECULE INHIBITORS OF KRAS G12D MUTANT” (MERCK SHARP & DOHME LLC, priority 2023, published 2026):

Key:
NRAS = NRAS (Homo sapiens, UniProt P01111); test: SOS-catalyzed nucleotide exchange assay, NRAS (Procedure A); assay type: biochemical; details: GNE
From the text: (§1) Procedure for SOS-Catalyzed Nucleotide Exchange Assay for KRAS-WT, G12C/D/V, G13D, HRAS, and NRAS (Procedure A)
(§2) Recombinant KRAS-G12C protein used in this assay has an additional triple mutation (C51S/C80L/C118S). Whereas KRAS-WT, G12D/V, G13D, HRAS and NRAS are in context of their WT protein sequence background. Specifically, the SOS-catalyzed nucleotide exchange assay utilizes a preformed TR-FRET complex containing a specific biotinylated RAS protein (KRAS-WT, G12C/V/D, G13D, HRAS, NRAS; described above) with Bodipy-GDP, and Terbium-streptavidin. Compounds are preincubated with this complex for 60 minutes. Subsequently, recombinant human SOS protein and unlabeled GTP are added to initiate the exchange reaction. Small molecule inhibitors stabilize the Bodipy-GDP complex whereas the untreated protein rapidly exchanges Bodipy-GDP for unlabeled GTP resulting in reduced TR-FRET signal.
(§3) To assemble the preformed TR-FRET complexes, each biotinylated RAS protein is diluted to 2 μM in an EDTA Buffer (20 mM HEPES pH 7.5, 50 mM sodium chloride, 10 mM EDTA, and 0.01% Tween) and incubated at room temperature for one hour. This mixture is then further diluted to 90 nM in an Assay Buffer (20 mM HEPES pH 7.5, 150 mM sodium chloride, 10 mM magnesium chloride, and 0.005% Tween) containing 15 nM of Terbium-Streptavidin (Invitrogen, catalog #PV3577) and 900 nM of Bodipy-GDP (Invitrogen, catalog #G22360) and incubated at room temperature for six hours. It should be noted that this preformed TR-FRET complex for each of the RAS protein were made ahead of time, aliquoted and stored at −80° C. until the day of the experiment.
(§4) Each test compound (10 mM stock in DMSO) is diluted in DMSO to make a final-10-point, 3-fold dilution and is acoustically dispensed into a 384-well assay plate (Corning, catalog #3820) using an Echo 550 (Labcyte). Each well of the assay plate receives 3 μL of a specific 3×RAS preformed TR-FRET complex and 3 μL of Assay Buffer and is incubated at room temperature for 60 minutes (preincubation time). Each well then receives 3 μL of 3× recombinant human SOS protein and GTP (Sigma, G8877) in Assay Buffer and is incubated at room temperature for 30 minutes (G13D), 60 minutes (KRAS WT/G12C/D, H/NRAS) or 90 minutes for G12V. The final reaction in each well of 9 μL consists of 3 mM GTP, specific Ras and SOS proteins in the following concentrations: KRAS-G12C/SOS=3 nM/40 nM, KRAS-WT and G12D/SOS=1 nM/40 nM, KRAS-G12V/SOS=1.25 nM/160 nM, KRAS-G13D/SOS=1.25 nM/0 nM, HRAS and NRAS=1.25 nM/40 nM.
(§5) The time-resolved fluorescence resonance energy transfer (TR-FRET) signal is measured on an Envision (PerkinElmer) plate reader: Excitation filter=340 nm; emission1=495 nm; emission2=520 nm; dichroic mirror=D400/D505; delay time=[…]. The signal of each well is determined as the ratio of the emission at 520 nm to that at 495 nm. Percent effect of each well is determined after normalization to control wells containing DMSO (no effect) or a saturating concentration of inhibitor (max effect). The apparent effect as a function of compound concentration is fit to a four-parameter logistic equation.
(§6) For Example No. 14, nucleotide exchange assays for KRAS G12D, WT, G12C, and G12V were performed according to Procedure B. All the other compounds were tested according to Procedure A.

AsPC-1 cells = target: T1, AsPC-1 cells (Homo sapiens, UniProt P01116, G12D); test: Cellular phospho-ERK assay, AsPC-1 cells (KRAS G12D); assay type: cell-based; details: 2 hours, read-out: AsPC1 pERK IC50
T1 construct: p-ERK/total ERK AlphaSureFire read-out
T1 sequence (P01116 1-188 isoform P01116-2 G12D): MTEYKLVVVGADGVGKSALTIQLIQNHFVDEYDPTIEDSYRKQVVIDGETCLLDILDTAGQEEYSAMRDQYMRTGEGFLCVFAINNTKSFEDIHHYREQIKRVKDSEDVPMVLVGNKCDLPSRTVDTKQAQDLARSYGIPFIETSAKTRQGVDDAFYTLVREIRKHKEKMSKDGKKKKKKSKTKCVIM
In short: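 Compound was titrated 10-point in 3-fold steps (top 30 μM) on KRAS G12D homozygous pancreatic lines PANC08.13 and AsPC-1 for 2 h at 37 °C. The p-ERK/total ERK ratio was measured by multiplex AlphaLISA SureFire and fitted with a 4-parameter logistic model to give IC50.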

KRAS G13D = KRAS G13D (Homo sapiens, UniProt P01116, G13D); test: SOS-catalyzed nucleotide exchange assay, KRAS G13D (Procedure A); assay type: biochemical; details: GNE
KRAS G13D, sequence (P01116 with tags, fused parts or gaps isoform P01116-2 G13D): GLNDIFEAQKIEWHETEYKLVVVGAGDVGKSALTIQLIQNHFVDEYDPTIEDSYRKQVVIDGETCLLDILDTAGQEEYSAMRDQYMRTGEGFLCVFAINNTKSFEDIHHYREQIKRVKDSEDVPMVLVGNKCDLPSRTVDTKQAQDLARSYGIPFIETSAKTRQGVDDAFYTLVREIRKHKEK
From the text: as §1, §2, §3, §4, §5, §6

KRAS G12C = KRAS G12C (Homo sapiens, UniProt P01116, C118S/C51S/C80L/G12C); test: SOS-catalyzed nucleotide exchange assay, KRAS G12C (Procedure A); assay type: biochemical; details: GNE
KRAS G12C, sequence (P01116 with tags, fused parts or gaps isoform P01116-2 G12C/C51S/C80L/C118S): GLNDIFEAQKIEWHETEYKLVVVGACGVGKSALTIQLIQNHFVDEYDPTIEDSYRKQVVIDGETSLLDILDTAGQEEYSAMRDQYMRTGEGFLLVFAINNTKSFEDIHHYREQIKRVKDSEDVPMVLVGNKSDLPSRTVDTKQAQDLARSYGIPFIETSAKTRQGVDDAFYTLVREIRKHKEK
From the text: as §1, §2, §3, §4, §5, §6

KRAS WT = KRAS WT (Homo sapiens, UniProt P01116); test: SOS-catalyzed nucleotide exchange assay, KRAS WT (Procedure A); assay type: biochemical; details: GNE
KRAS WT, sequence (P01116 with tags, fused parts or gaps isoform P01116-2): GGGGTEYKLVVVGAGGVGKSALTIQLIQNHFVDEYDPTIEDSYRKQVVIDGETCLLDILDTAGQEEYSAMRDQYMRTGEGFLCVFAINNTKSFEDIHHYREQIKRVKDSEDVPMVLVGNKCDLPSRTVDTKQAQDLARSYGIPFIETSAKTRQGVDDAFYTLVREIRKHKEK
In short: (§7)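 60 min cpd preinc. w/ RAS–Bodipy-GDP–Tb-SA complex; + hSOS/GTP (3 mM final), RT. G12C 3 nM RAS/40 nM SOS; WT, G12D 1 nM/40 nM; 60 min rxn. G13D 1.25 nM, no SOS, 30 min rxn. HEPES pH 7.5, 10 mM MgCl2. Ratio 520/495, norm. to DMSO/max-inhibitor ctrls.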

HRAS = HRAS (Homo sapiens, UniProt P01112); test: SOS-catalyzed nucleotide exchange assay, HRAS (Procedure A); assay type: biochemical; details: GNE
HRAS, sequence (P01112 with tags, fused parts or gaps): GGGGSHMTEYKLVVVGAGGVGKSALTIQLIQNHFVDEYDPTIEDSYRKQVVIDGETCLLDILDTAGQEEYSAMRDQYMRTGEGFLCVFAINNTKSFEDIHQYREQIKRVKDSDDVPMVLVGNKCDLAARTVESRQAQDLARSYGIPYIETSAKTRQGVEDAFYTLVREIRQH
From the text: as §1, §2, §3, §4, §5, §6

KRAS G12D = KRAS G12D (Homo sapiens, UniProt P01116, G12D); test: SOS-catalyzed nucleotide exchange assay, KRAS G12D (Procedure A); assay type: biochemical; details: guanine nucleotide exchange (GNE)
KRAS G12D, sequence (P01116 with tags, fused parts or gaps isoform P01116-2 G12D): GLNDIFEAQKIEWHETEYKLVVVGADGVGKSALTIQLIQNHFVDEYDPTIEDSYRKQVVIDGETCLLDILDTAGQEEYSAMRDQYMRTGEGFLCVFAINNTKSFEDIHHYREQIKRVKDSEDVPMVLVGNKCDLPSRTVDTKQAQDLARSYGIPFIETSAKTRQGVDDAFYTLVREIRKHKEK
In short: as §7

KRAS G12V = KRAS G12V (Homo sapiens, UniProt P01116, G12V); test: SOS-catalyzed nucleotide exchange assay, KRAS G12V (Procedure A); assay type: biochemical; details: GNE
KRAS G12V, sequence (P01116 with tags, fused parts or gaps isoform P01116-2 G12V): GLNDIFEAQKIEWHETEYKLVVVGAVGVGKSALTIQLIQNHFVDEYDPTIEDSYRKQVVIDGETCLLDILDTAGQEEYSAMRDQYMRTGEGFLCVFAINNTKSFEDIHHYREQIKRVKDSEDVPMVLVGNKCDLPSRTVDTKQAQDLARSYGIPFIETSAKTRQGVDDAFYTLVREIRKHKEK
In short: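 Biotinylated KRAS G12V was loaded with Bodipy-GDP alongside Terbium-streptavidin to form a TR-FRET complex, which was preincubated with compounds for 60 minutes in 384-well plates. Human SOS protein and unlabeled GTP were then added for 90 minutes, giving final concentrations of 1.25 nM KRAS-G12V, 160 nM SOS and 3 mM GTP. The 520/495 nm emission ratio was read on an Envision.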

NRAS, sequence (P01111 with tags, fused parts or gaps): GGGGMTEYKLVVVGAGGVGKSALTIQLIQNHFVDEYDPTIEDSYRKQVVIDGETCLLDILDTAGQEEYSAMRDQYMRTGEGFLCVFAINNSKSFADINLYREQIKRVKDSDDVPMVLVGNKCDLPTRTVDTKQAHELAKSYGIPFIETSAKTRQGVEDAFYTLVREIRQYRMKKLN

## Cc1cc2[nH]ncc2c(-c2nccc3c2sc2nc(OC[C@@]45CCCN4C[C@H](F)C5)nc(N4C5CNCC4C5)c23)c1C(F)(F)F [Ex-68, 4-(3,6-diazabicyclo[3.1.1]heptan-6-yl)-2-(((2R,7aS)-2-fluorotetrahydro-1H-pyrrolizin-7a(5H)-yl)methoxy)-8-(6-methyl-5-(trifluoromethyl)-1H-indazol-4-yl)pyrido[4′,3′:4,5]thieno[2,3-d]pyrimidine]
NRAS
  IC50: > 11.1 µM
AsPC-1 cells
  IC50: 11.1 µM
KRAS G13D
  IC50: 3050 nM
KRAS G12C
  IC50: 1850 nM
KRAS WT
  IC50: 6.6 µM
HRAS
  IC50: > 11.1 µM
KRAS G12D
  IC50: 267 nM
KRAS G12V
  IC50: 1.36 µM

## Cc1cc2[nH]ncc2c(-c2nccc3c2sc2nc(OC[C@@]45CCCN4C[C@H](F)C5)nc(N4C[C@@H]5C[C@H]4CN5)c23)c1C(F)(F)F [Ex-69, 4-((1S,4S)-2,5-diazabicyclo[2.2.1]heptan-2-yl)-2-(((2R,7aS)-2-fluorotetrahydro-1H-pyrrolizin-7a(5H)-yl)methoxy)-8-(6-methyl-5-(trifluoromethyl)-1H-indazol-4-yl)pyrido[4′,3′:4,5]thieno[2,3-d]pyrimidine]
NRAS
  IC50: > 11.1 µM
AsPC-1 cells
  IC50: 1.54 µM
KRAS G13D
  IC50: 1210 nM
KRAS G12C
  IC50: 1740 nM
KRAS WT
  IC50: 4.91 µM
HRAS
  IC50: > 11.1 µM
KRAS G12D
  IC50: 35.6 nM
KRAS G12V
  IC50: > 11.1 µM

## Cc1cc2[nH]ncc2c(-c2nccc3c2sc2nc(OC[C@@]45CCCN4C[C@H](F)C5)nc(N4C[C@H]5C[C@@H]4CN5)c23)c1C(F)(F)F [Ex-70, 4-((1R,4R)-2,5-diazabicyclo[2.2.1]heptan-2-yl)-2-(((2R,7aS)-2-fluorotetrahydro-1H-pyrrolizin-7a(5H)-yl)methoxy)-8-(6-methyl-5-(trifluoromethyl)-1H-indazol-4-yl)pyrido[4′,3′:4,5]thieno[2,3-d]pyrimidine]
NRAS
  IC50: > 11.1 µM
AsPC-1 cells
  IC50: 5.11 µM
KRAS G13D
  IC50: 2260 nM
KRAS G12C
  IC50: 948 nM
KRAS WT
  IC50: 7.5 µM
HRAS
  IC50: > 11.1 µM
KRAS G12D
  IC50: 836 nM
KRAS G12V
  IC50: 9.75 µM

## Cc1cc2[nH]ncc2c(-c2nccc3c2sc2nc(OC[C@@]45CCCN4C[C@H](F)C5)nc(N4[C@@H]5CC[C@H]4CNC5)c23)c1C(F)(F)F [Ex-71, 4-((1R,5S)-3,8-diazabicyclo[3.2.1]octan-8-yl)-2-(((2R,7aS)-2-fluorotetrahydro-1H-pyrrolizin-7a(5H)-yl)methoxy)-8-(6-methyl-5-(trifluoromethyl)-1H-indazol-4-yl)pyrido[4′,3′:4,5]thieno[2,3-d]pyrimidine]
NRAS
  IC50: > 11.1 µM
AsPC-1 cells
  IC50: 0.885 µM
KRAS G13D
  IC50: 2510 nM
KRAS G12C
  IC50: 1100 nM
KRAS WT
  IC50: 8.09 µM
HRAS
  IC50: > 11.1 µM
KRAS G12D
  IC50: 34.8 nM
KRAS G12V
  IC50: 5.16 µM

## Cc1cc2[nH]ncc2c(-c2nccc3c2sc2nc(OC[C@@]45CCCN4C[C@H](F)C5)nc(N4CCC5CCC(C4)N5)c23)c1C(F)(F)F (stereo partly drawn) [Ex-72, 4-(3,9-diazabicyclo[4.2.1]nonan-3-yl)-2-(((2R,7aS)-2-fluorotetrahydro-1H-pyrrolizin-7a(5H)-yl)methoxy)-8-(6-methyl-5-(trifluoromethyl)-1H-indazol-4-yl)pyrido[4′,3′:4,5]thieno[2,3-d]pyrimidine]
NRAS
  IC50: > 11.1 µM
AsPC-1 cells
  IC50: > 30 µM
KRAS G13D
  IC50: 2620 nM
KRAS G12C
  IC50: > 11100 nM
KRAS WT
  IC50: > 11.1 µM
HRAS
  IC50: > 11.1 µM
KRAS G12D
  IC50: 5300 nM
KRAS G12V
  IC50: > 11.1 µM

## Cc1cc2[nH]ncc2c(-c2nccc3c2sc2nc(OC[C@@]45CCCN4C[C@H](F)C5)nc(N4[C@@H]5CC[C@H]4CN(C)C5)c23)c1C(F)(F)F [Ex-73, 2-(((2R,7aS)-2-fluorotetrahydro-1H-pyrrolizin-7a(5H)-yl)methoxy)-8-(6-methyl-5-(trifluoromethyl)-1H-indazol-4-yl)-4-((1R,5S)-3-methyl-3,8-diazabicyclo[3.2.1]octan-8-yl)pyrido[4′,3′:4,5]thieno[2,3-d]pyrimidine]
NRAS
  IC50: > 11.1 µM
AsPC-1 cells
  IC50: 4.79 µM
KRAS G13D
  IC50: > 11100 nM
KRAS G12C
  IC50: > 11100 nM
KRAS WT
  IC50: > 11.1 µM
HRAS
  IC50: > 11.1 µM
KRAS G12D
  IC50: 1390 nM
KRAS G12V
  IC50: > 11.1 µM

## Cc1cc2[nH]ncc2c(-c2nccc3c2sc2nc(OC[C@@]45CCCN4C[C@H](F)C5)nc(NCC4(N(C)C)CCC4)c23)c1C(F)(F)F [Ex-74, N-((1-(dimethylamino)cyclobutyl)methyl)-2-(((2R,7aS)-2-fluorotetrahydro-1H-pyrrolizin-7a(5H)-yl)methoxy)-8-(6-methyl-5-(trifluoromethyl)-1H-indazol-4-yl)pyrido[4′,3′:4,5]thieno[2,3-d]pyrimidin-4-amine]
NRAS
  IC50: > 11.1 µM
AsPC-1 cells
  IC50: 12.1 µM
KRAS G13D
  IC50: 2880 nM
KRAS G12C
  IC50: > 11100 nM
KRAS WT
  IC50: > 11.1 µM
HRAS
  IC50: > 11.1 µM
KRAS G12D
  IC50: 1300 nM
KRAS G12V
  IC50: > 11.1 µM

## Cc1cc2[nH]ncc2c(-c2nccc3c2sc2nc(OC[C@@]45CCCN4C[C@H](F)C5)nc(N4C[C@H]5CC[C@@](C)(C4)N5)c23)c1C(F)(F)F [Ex-76, 2-(((2R,7aS)-2-fluorotetrahydro-1H-pyrrolizin-7a(5H)-yl)methoxy)-8-(6-methyl-5-(trifluoromethyl)-1H-indazol-4-yl)-4-((1S,5R)-1-methyl-3,8-diazabicyclo[3.2.1]octan-3-yl)pyrido[4′,3′:4,5]thieno[2,3-d]pyrimidine]
NRAS
  IC50: > 11.1 µM
AsPC-1 cells
  IC50: 0.397 µM
KRAS G13D
  IC50: 1810 nM
KRAS G12C
  IC50: 1040 nM
KRAS WT
  IC50: 8.27 µM
HRAS
  IC50: > 11.1 µM
KRAS G12D
  IC50: 26.3 nM
KRAS G12V
  IC50: 6.35 µM

## Cc1cc2[nH]ncc2c(-c2nncc3c2sc2nc(OC[C@@]45CCCN4C[C@H](F)C5)nc(N4C[C@H]5CC[C@@H](C4)N5)c23)c1C(F)(F)F [Ex-77, 4-((1R,5S)-3,8-diazabicyclo[3.2.1]octan-3-yl)-2-(((2R,7aS)-2-fluorotetrahydro-1H-pyrrolizin-7a(5H)-yl)methoxy)-8-(6-methyl-5-(trifluoromethyl)-1H-indazol-4-yl)pyrimido[5′,4′:4,5]thieno[2,3-d]pyridazine]
NRAS
  IC50: > 11.1 µM
AsPC-1 cells
  IC50: 0.726 µM
KRAS G13D
  IC50: 374 nM
KRAS G12C
  IC50: 334 nM
KRAS WT
  IC50: 4.84 µM
HRAS
  IC50: > 11.1 µM
KRAS G12D
  IC50: 17.1 nM
KRAS G12V
  IC50: 2.32 µM
